Reference: the supplement of paper PMC11208160

Assay: recombinant UMI read abundance after kanamycin selection (control-corrected) (log10(CPM+1)); higher = more efficient recombination; extreme values may be limits of the assay; sequences stand for … in AGTGCAGAGAAAATCGGCCAGTTTTCTCTGCCTGCAGTCCGCATGCCGTGGGACCCCTTGGGTTCTAACCTGTTGCCTAGATTTATGCAGCGGACTGCCTTTCTCCCAAAGTGATAAACCGG…AGGTTGGTTTCACT; site = the 11-nt donor
Method: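 Pooled E. coli donor-specificity screen for the IS621 bridge recombinase. Each library member carries a reprogrammed 11-nt donor and a full-length LE bridge RNA expressed in cis from the natural promoter, with a paired donor-binding loop (8-nt LDG + 4-nt RDG) and a target-binding loop fixed to T5. It is co-electroporated with a T5 target plasmid; recombinase is induced with 0.07 mM IPTG and recombinants are selected on kanamycin. UMIs are counted as CPM, averaged over two biological replicates and corrected by the unselected control. Molecule = full bridge RNA written as DNA, built from the T5 scaffold: LDG = donor specificity nt 1-8, RDG = reverse complement of nt 8-11.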
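Further: IS621 bridge recombinase in Escherichia coli cells against a fixed T5 target plasmid.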

First: ACGTTTACATGGACCGGTTTTCCCGGTAATCCGTATTTGCT (site ACGTTTACTAG)
Second: ACGTTTACATGGACCGGTTTTCCCGGTAATCCGTATTTGCT (site CCGTTTACTAG)
The “recombinant UMI read abundance (log10)” value of the first is higher: 2.06 for the first, 1.53 for the second.

First: ACGTTTACATGGACCGGTTTTCCCGGTAATCCGTATTTGCT (site GCGTTTACTAG)
Second: ACGTTTACATGGACCGGTTTTCCCGGTAATCCGTATTTGCT (site TCGTTTACTAG)
The “recombinant UMI read abundance (log10)” value of the first is lower: 0.666 for the first, 1.37 for the second.

Compared with “ACGTTTGCATGGACCGGTTTTCCCGGTAATCCGTATTTGTC (site ACGTTTGCTGA)”, “ACTAAGTCATGGACCGGTTTTCCCGGTAATCCGTATTTGAG (site ACTAAGTCTCT)” is higher in “recombinant UMI read abundance (log10)” value: 1.45 for the first, 2.46 for the second.

First: ACTACACCATGGACCGGTTTTCCCGGTAATCCGTATTTGCC (site ACTACACCTGG)
Second: ACTACAGCATGGACCGGTTTTCCCGGTAATCCGTATTTGAC (site ACTACAGCTGT)
The “recombinant UMI read abundance (log10)” value of the first is lower: 0 for the first, 2.36 for the second.

First: ACTACCCCATGGACCGGTTTTCCCGGTAATCCGTATTTGAC (site ACTACCCCTGT)
Second: ACTAGAACATGGACCGGTTTTCCCGGTAATCCGTATTTGGG (site ACTAGAACTCA)
The “recombinant UMI read abundance (log10)” value of the first is higher: 0.736 for the first, 0.0109 for the second.

“ACTAGAACATGGACCGGTTTTCCCGGTAATCCGTATTTGGG (site ACTAGAACTCC)” and “ACTAGAACATGGACCGGTTTTCCCGGTAATCCGTATTTGGG (site ACTAGAACTCG)” are within 0.2 log units of each other in “recombinant UMI read abundance (log10)” value: 0.113 for the first, 0.00448 for the second.

Going from “ACTAGAACATGGACCGGTTTTCCCGGTAATCCGTATTTGGG (site ACTAGAACTCT)” to “ACTAGAACATGGACCGGTTTTCCCGGTAATCCGTATTTGTG (site ACTAGAACTCA)”, the “recombinant UMI read abundance (log10)” value rises from 0.0325 to 1.35.

Compared with “ACTAGAACATGGACCGGTTTTCCCGGTAATCCGTATTTGTG (site ACTAGAACTCC)”, “ACTAGAACATGGACCGGTTTTCCCGGTAATCCGTATTTGTG (site ACTAGAACTCG)” is higher in “recombinant UMI read abundance (log10)” value: 0.0298 for the first, 0.285 for the second.

“ACTAGAACATGGACCGGTTTTCCCGGTAATCCGTATTTGTG (site ACTAGAACTCT)” and “ACTAGTGCATGGACCGGTTTTCCCGGTAATCCGTATTTGGA (site ACTAGTGCTAC)” are the same in “recombinant UMI read abundance (log10)” value: 0 for the first, 0 for the second.

“ACTAGTGCATGGACCGGTTTTCCCGGTAATCCGTATTTGGA (site ACTAGTGCTCC)” and “ACTAGTGCATGGACCGGTTTTCCCGGTAATCCGTATTTGGA (site ACTAGTGCTGC)” are within 0.2 log units of each other in “recombinant UMI read abundance (log10)” value: 0.0115 for the first, 0 for the second.

Going from “ACTAGTGCATGGACCGGTTTTCCCGGTAATCCGTATTTGGA (site ACTAGTGCTTC)” to “ACTATAGCATGGACCGGTTTTCCCGGTAATCCGTATTTGCA (site ACTATAGCTTG)”, the “recombinant UMI read abundance (log10)” value rises from 1.36 to 1.94.

Going from “ACTCAAGCATGGACCGGTTTTCCCGGTAATCCGTATTTGTT (site ACTCAAGCTAA)” to “ACTCCAGCATGGACCGGTTTTCCCGGTAATCCGTATTTGTG (site ACTCCAGCTCA)”, the “recombinant UMI read abundance (log10)” value falls from 1.72 to 0.753.

Going from “ACTCGAGCATGGACCGGTTTTCCCGGTAATCCGTATTTGCT (site ACTCGAGCTAG)” to “ACTCTAGCATGGACCGGTTTTCCCGGTAATCCGTATTTGCC (site ACTCTAGCTGG)”, the “recombinant UMI read abundance (log10)” value falls from 1.64 to 0.

Compared with “ACTGAATCATGGACCGGTTTTCCCGGTAATCCGTATTTGCC (site ACTGAATCTGG)”, “ACTGCATCATGGACCGGTTTTCCCGGTAATCCGTATTTGGA (site ACTGCATCTTC)” is lower in “recombinant UMI read abundance (log10)” value: 2.1 for the first, 1.22 for the second.

Compared with “ACTGGAACATGGACCGGTTTTCCCGGTAATCCGTATTTGAG (site ACTAGAACTCT)”, “ACTGGAACATGGACCGGTTTTCCCGGTAATCCGTATTTGAG (site ACTCGAACTCT)” is lower in “recombinant UMI read abundance (log10)” value: 1.69 for the first, 0.239 for the second.

First: ACTGGAACATGGACCGGTTTTCCCGGTAATCCGTATTTGAG (site ACTGGAACTCT)
Second: ACTGGAACATGGACCGGTTTTCCCGGTAATCCGTATTTGAG (site ACTTGAACTCT)
The “recombinant UMI read abundance (log10)” value of the first is higher: 2.11 for the first, 0.0249 for the second.
